Measurements as given in US11040976B2, “Substrate selective inhibitors of insulin-degrading enzyme (IDE) and uses thereof” (President and Fellows of Harvard College, priority 2015, dated 2021).

Molecular target: T1, human IDE Ala479Leu (Homo sapiens, UniProt P14735, A479L)
T1 construct: N-His6-tagged human IDE42-1019 construct was introduced in the expression plasmid pTrcHis-A; His6 (N); made in house; host or cells: E. coli Rosetta 2 (DE3) pLysS
T1 sequence (P14735 42-1019 A479L): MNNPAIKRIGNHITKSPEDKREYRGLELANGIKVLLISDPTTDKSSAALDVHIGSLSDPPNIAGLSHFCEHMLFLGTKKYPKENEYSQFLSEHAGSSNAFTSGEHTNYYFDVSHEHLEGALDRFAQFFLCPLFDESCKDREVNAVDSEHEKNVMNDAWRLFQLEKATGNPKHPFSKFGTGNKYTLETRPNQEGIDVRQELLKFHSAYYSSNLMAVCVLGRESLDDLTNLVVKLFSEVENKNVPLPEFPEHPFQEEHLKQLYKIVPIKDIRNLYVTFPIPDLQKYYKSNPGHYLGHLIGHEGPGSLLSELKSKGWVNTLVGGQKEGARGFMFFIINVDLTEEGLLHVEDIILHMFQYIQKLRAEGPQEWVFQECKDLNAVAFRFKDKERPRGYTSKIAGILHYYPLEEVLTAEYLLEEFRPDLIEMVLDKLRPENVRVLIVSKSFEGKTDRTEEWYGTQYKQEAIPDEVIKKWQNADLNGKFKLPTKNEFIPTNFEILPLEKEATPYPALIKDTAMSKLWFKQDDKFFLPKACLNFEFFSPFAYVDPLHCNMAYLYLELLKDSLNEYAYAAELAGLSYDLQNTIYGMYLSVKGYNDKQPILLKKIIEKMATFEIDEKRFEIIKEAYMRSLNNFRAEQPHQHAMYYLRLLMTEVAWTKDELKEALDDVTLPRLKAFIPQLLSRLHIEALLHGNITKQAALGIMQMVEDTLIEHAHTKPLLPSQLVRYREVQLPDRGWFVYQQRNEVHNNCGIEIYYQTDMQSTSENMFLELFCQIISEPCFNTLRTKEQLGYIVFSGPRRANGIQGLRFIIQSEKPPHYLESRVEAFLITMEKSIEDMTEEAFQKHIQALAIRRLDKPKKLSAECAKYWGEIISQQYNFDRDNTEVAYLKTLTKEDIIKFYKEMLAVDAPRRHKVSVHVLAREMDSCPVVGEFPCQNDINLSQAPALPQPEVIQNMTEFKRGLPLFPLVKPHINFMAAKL
Experiment: Activity assay of mutant human IDE variant A479L with IDE inhibitors
Format: biochemical
Text: N-His6-tagged human IDE42-1019 construct was introduced in the expression plasmid pTrcHis-A (Invitrogen) using primers for uracil-specific excision reactions (USER) by Taq (NEB) and Pfu polymerases (PfuTurbo CX®, Agilent), as described in more detail in Maianti et al. (Nature (2014), 511, 94-98), which is incorporated by reference herein. The IDE gene was amplified with the primers 5′-[…]-dU-[…] (SEQ ID NO: 26) and 5′-[…] G-dU-[…] (SEQ ID NO: 27) (underlined sequences represent overhangs, and italics highlight the PCR priming sequence). Similarly, the pTrcHis-A vector was amplified for USER cloning with the primers 5′-[…]-dU-[…] (SEQ ID NO: 28) and 5′-[…]-dU-[…] (SEQ ID NO: 29). Mutant IDE constructs were generated by amplifying the full vector construct with USER cloning primers introducing a mutant overhang (see Table E6).
Recombinant His6-tagged proteins were purified by Ni(II)-affinity chromatography (IMAC sepharose beads, GE Healthcare®) according to the manufacturer's instructions. The cell pellets were re-suspended in pH 8.0 buffer containing 50 mM phosphate, 300 mM NaCl, 10 mM imidazole, 1% Triton X-100 and 1 mM tris(2-carboxyethyl)phosphine hydrochloride (TCEP), and were lysed by probe sonication for 4 minutes at <4° C., followed by clearing of cell debris by centrifugation at 10,000 g for 25 minutes at 4° C. […]

## NCCCC[C@@H]1NC(=O)/C=C/C(=O)N[C@H](C(N)=O)CCCCNC(=O)[C@@H](Cc2ccc(C(=O)c3ccccc3)cc2)NC(=O)[C@H](CC2CCCCC2)NC1=O [6bK, reference compound]
  effect of Ala479Leu mutation on inhibition of IDE: blocks 6bK from inhibiting IDE
